The pIC50 is the IC50 on a negative log10 scale, so that one unit is a factor of ten. Read a low pIC50 as a high IC50. The IC50 is the concentration at which inhibition is half-maximal.

The values below come from patent US12605459B2, “Protein-drug conjugates comprising camptothecin analogs and methods of use thereof” (priority 2020, dated 2026).

In one test the test system is Calu-3 cells. The format is cell-based, human. The settings on record: Table 27 (second experiment), six days. As to the method: (§1) To test the ability of anti-HER2 or anti-STEAP2 antibody drug conjugates (ADCs) of the present disclosure to kill human cell lines, an in vitro cytotoxicity assay was performed. In vitro cytotoxicity of the ADCs, isotype control ADCs, and reference free payloads were evaluated using the CellTiter-Glo 2.0 Assay Kit (Promega, Cat #g9243), in which the quantity of ATP present is used to determine the number of viable cells in culture.
(§2) For the assay, Calu-3, SK-BR-3, NCI-H1975, C42, or C42/STEAP2 KO (knockout) cells were seeded at 1000 cells/well in poly-D-lysine coated white 96 well Biocoat plates (Corning #356693) in complete growth medium and grown overnight at 37° C. in 5% CO2. Three-fold serial dilutions of anti-HER2 ADCs or isotype control ADCs were prepared in dilution media (Optimem+0.1% BSA) and added to cells at final concentrations ranging from 100 nM to 0.015 nM (concentrations were corrected for the DAR (drug antibody ratio) and dosed based on the effective payload concentration). Three-fold serial dilutions of free payloads were prepared in 100% DMSO, transferred to fresh dilution media, and then added to the cells at a final constant DMSO concentration of 0.2% and final payload concentrations ranging from 100 nM to 0.015 nM. The last well in each dilution series (untreated wells) served as blank controls containing only the media (ADCs) or media plus 0.2% DMSO (payloads) and was plotted as a continuation of the 3-fold serial dilution. Six days later, 100 μL of CellTiter glo 2.0 was added to each well, plates were mixed for 2 minutes on an orbital shaker, and plates were incubated at room temperature for 10 minutes. Relative light units (RLUs) were measured on an Envision luminometer (PerkinElmer), and cell viability was expressed as a percentage of the untreated (100% viable) cells. IC50 values were determined using a four-parameter logistic equation over a 10-point dose response curve (GraphPad Prism). The maximum % kill was also determined for each test article as follows: 100—minimum percent viability.

The next test deals with SK-BR-3 cells. The format is cell-based, human. Particulars: six days; for pIC50: concentrations corrected for DAR. As to the method:
as §1, §2

A further test relates to NCI-H1975 cells. The test can be described thus: In vitro cytotoxicity assay in tumor lines (CellTiter-Glo 2.0), NCI-H1975. It counts as cell-based, human. Particulars: six days; for pIC50: concentrations corrected for DAR. On the procedure:
as §1, §2
On the technique in general: Cellular ATP, detected with luciferase, serves as a proxy for viable cell number.

In the next test the test system is C4-2 cells. The experiment in a line: In vitro cytotoxicity assay in tumor lines (CellTiter-Glo 2.0), C4-2. It counts as cell-based, human. As to the method: as §1, §2
The test system of another test is C4-2/STEAP2 KO cells. The test can be described thus: In vitro cytotoxicity assay in tumor lines (CellTiter-Glo 2.0), C4-2/STEAP2 KO. The format is cell-based, human. As to the method: The last well in each dilution series (untreated wells) served as blank controls containing only the media (ADCs) or media plus 0.2% DMSO (payloads) and was plotted as a continuation of the 3-fold serial dilution. […] Relative light units (RLUs) were measured on an Envision luminometer (PerkinElmer), and cell viability was expressed as a percentage of the untreated (100% viable) cells. IC50 values were determined using a four-parameter logistic equation over a 10-point dose response curve (GraphPad Prism).

The subject of test [1] is SK-BR-3, Calu-3 and NCI-H1975 cells. The test can be described thus: In vitro cytotoxicity assay, statements pooled over several tested lines (SK-BR-3, Calu-3, NCI-H1975). The settings on record: all tested cells; units printed with the values (pM, nM). It counts as cell-based, human. As to the method:
as §1
For the assay, Calu-3, SK-BR-3, NCI-H1975, C42, or C42/STEAP2 KO (knockout) cells were seeded at 1000 cells/well in poly-D-lysine coated white 96 well Biocoat plates (Corning #356693) in complete growth medium and grown overnight at 37° C. in 5% CO2. Three-fold serial dilutions of anti-HER2 ADCs or isotype control ADCs were prepared in dilution media (Optimem+0.1% BSA) and added to cells at final concentrations ranging from 100 nM to 0.015 nM (concentrations were corrected for the DAR (drug antibody ratio) and dosed based on the effective payload concentration). […] Relative light units (RLUs) were measured on an Envision luminometer (PerkinElmer), and cell viability was expressed as a percentage of the untreated (100% viable) cells. IC50 values were determined using a four-parameter logistic equation over a 10-point dose response curve (GraphPad Prism). The maximum % kill was also determined for each test article as follows: 100—minimum percent viability.

In a further test the test system is HCT-15. The experiment in a line: cells. The format is cell-based.
Setting [2] is: Homo sapiens, HCT-15, read-out: IC50 (nM) +v.
Setting [3] is: Homo sapiens, HCT-15, read-out: IC50 (nM) −v.

pIC50: −log10 of the molar value. Read-outs that look alike come from different tables or passages of the source. Non-standard residues stand in square brackets, D forms with d. Residues, ends and D or L forms follow the SMILES beside them. *: point of attachment. Dolaproine = CO[C@@H]([C@@H]1CCCN1)[C@@H](C)C(=O)O; Dil = CC[C@H](C)[C@H](NC)[C@@H](CC(=O)O)OC; X1 = C[C@@H](N*)[C@@H](O)c1ccccc1; NMeV = CN[C@H](C(=O)O)C(C)C

`CC[C@@]1(O)C(=O)OCc2c1cc1n(c2=O)Cc2c-1nc1cc(F)c(C)c3c1c2[C@@H](NC(=O)CO)CC3` [Dxd]: in the test on Calu-3 cells, the “Calu-3 Max % Kill” value is reported as 96.3%. In addition, the negative logarithm of the IC50 (pIC50) in the test on Calu-3 cells (concentrations corrected for DAR) was 8.67; with SK-BR-3 cells (Table 26 (first experiment)), 9.10; in the test with SK-BR-3 cells (Table 27 (second experiment)) it was 8.81; with NCI-H1975 cells (Table 26 (first experiment)), 8.05; with NCI-H1975 cells (Table 27 (second experiment)), 7.93; with C4-2 cells (C4-2 cells, 6 days) it was 8.60. In addition, in the test on C4-2/STEAP2 KO cells (C4-2/STEAP2 KO cells, 6 days), the negative logarithm of the IC50 (pIC50) is 8.46. Besides, the “SK-BR-3 Max % Kill” value with SK-BR-3 cells (Table 26 (first experiment)) was found to be 97.1%; in the test with SK-BR-3 cells (Table 27 (second experiment)), 98.2%. Moreover, the “NCI-H1975 Max % Kill” value in the test with NCI-H1975 cells (Table 26 (first experiment)) is 95.9%; in the test with NCI-H1975 cells (Table 27 (second experiment)), 96.1%. Also, in the test on C4-2 cells (C4-2 cells, 6 days), the maximum % kill was 81.7%. In addition, in the test on C4-2 cells (Table 28, six days), the “C4-2 Max % Kill” value is 81.7%. The “C4-2/STEAP2 KO Max % Kill” value with C4-2/STEAP2 KO cells (Table 28, six days) came out at 88.9%. In addition, in test [1], the half-inhibitory concentration (IC50) fell in the range of 787 to 11800 pM.
Consider `CC[C@H](C)[C@@H]([C@@H](CC(=O)N1CCC[C@H]1[C@H](OC)[C@@H](C)C(=O)N[C@H](C)[C@@H](O)c1ccccc1)OC)N(C)C(=O)[C@@H](NC(=O)[C@@H](NC)C(C)C)C(C)C` [MMAE] (H-[NMeV]V[Dil][Dolaproine]-X1), for which the “Ratio to MMAE +v” value in the test with HCT-15 (HCT-15, with verapamil) was determined as 1x. Also, the half-inhibitory concentration (IC50) was 0.946 nM in the test on HCT-15 (HCT-15, with verapamil, read-out: IC50 (nM) +v) and 14.8 nM in the test on HCT-15 (HCT-15, without verapamil, read-out: IC50 (nM) −v). The “Ratio to MMAE −v” value in the test on HCT-15 (HCT-15, without verapamil) came to 1x.
For `CC[C@@]1(O)C(=O)OCc2c1cc1n(c2=O)Cc2c-1nc1cc(F)c(C)c3c1c2[C@@H](N)CC3` [P1, Exatecan], the “Ratio to MMAE +v” value with HCT-15 (HCT-15, with verapamil) worked out at 1.833x. In addition, the “Ratio to MMAE −v” value with HCT-15 (HCT-15, without verapamil) is reported as 0.087x. The IC50 is 1.73 nM in the test with HCT-15 (Homo sapiens, HCT-15, with verapamil, read-out: IC50 (nM) +v) and 1.29 nM in the test on HCT-15 (Homo sapiens, HCT-15, without verapamil, read-out: IC50 (nM) −v).
As for `CC[C@@]1(O)C(=O)OCc2c1cc1n(c2=O)Cc2c-1nc1cc(F)c(C)c3c1c2[C@@H](NC(=O)CO)CC3` [P2, Dxd], the concentration for half-maximal inhibition (IC50) was determined as 2.65 nM in the test on HCT-15 (setting [2]) and 7 nM in the test with HCT-15 (setting [3]).
Turning to `CC[C@@]1(O)C(=O)OCc2c1cc1n(c2=O)Cc2c-1nc1cc(F)c(C)c3c1c2[C@@H](NC(=O)COCNC(=O)CN)CC3` [P3], the “Ratio to MMAE +v” value in the test with HCT-15 (HCT-15, with verapamil) is reported as 23.426x. Further, the “Ratio to MMAE −v” value with HCT-15 (HCT-15, without verapamil) is on record as 3.011x. Besides, the concentration for half-maximal inhibition (IC50) was 22.2 nM in the test with HCT-15 (setting [2]) and 44.9 nM in the test on HCT-15 (setting [3]).
